Measured values taken from ChEMBL document CHEMBL4265936, “Pyrazolo[4,3-b]pyrimido[4,5-e][1,4]diazepine derivatives as new multi-targeted inhibitors of Aurora A/B and KDR” (Eur J Med Chem, 2018).

What was measured:
[1] = test system: Mus musculus; assay: Toxicity in nude mouse xenografted with human SNU5 cells assessed as body weight at 30 mg/kg, po qd for 21 days (reference value: 19.6 g); assay type: organism-based; settings: in vivo, 504 h
[2] = test system: SNU-5; assay: Antitumor activity against human SNU5 cells xenografted in nude mouse assessed as delay in tumor tumor growth at 30 mg/kg, po qd for 21 days relative to control; assay type: functional
[3] = test system: Mus musculus; assay: Toxicity in nude mouse xenografted with human SNU5 cells assessed as mortality at 30 mg/kg, po qd for 21 days; assay type: organism-based; settings: in vivo, 504 h
[4] = target: Aurora kinase B (Homo sapiens, UniProt Q96GD4); assay: Inhibition of Aurora B (unknown origin) using STK S2 as substrate after 30 mins by HTRF assay
Aurora kinase B, sequence (Q96GD4 whole entry): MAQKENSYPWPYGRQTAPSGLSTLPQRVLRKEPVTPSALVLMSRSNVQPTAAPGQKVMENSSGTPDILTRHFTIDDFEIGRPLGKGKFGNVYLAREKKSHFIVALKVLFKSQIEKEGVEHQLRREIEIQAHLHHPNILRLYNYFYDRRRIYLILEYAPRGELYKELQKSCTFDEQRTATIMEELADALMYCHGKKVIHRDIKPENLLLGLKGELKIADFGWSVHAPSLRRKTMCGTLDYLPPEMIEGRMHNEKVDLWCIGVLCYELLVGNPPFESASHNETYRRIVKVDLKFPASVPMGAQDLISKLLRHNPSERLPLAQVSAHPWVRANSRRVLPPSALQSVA

[5] = target: Vascular endothelial growth factor receptor 2 (Homo sapiens, UniProt P35968); assay: biochemical; assay type: cell-based, Sf21
Vascular endothelial growth factor receptor 2, sequence (P35968 whole entry): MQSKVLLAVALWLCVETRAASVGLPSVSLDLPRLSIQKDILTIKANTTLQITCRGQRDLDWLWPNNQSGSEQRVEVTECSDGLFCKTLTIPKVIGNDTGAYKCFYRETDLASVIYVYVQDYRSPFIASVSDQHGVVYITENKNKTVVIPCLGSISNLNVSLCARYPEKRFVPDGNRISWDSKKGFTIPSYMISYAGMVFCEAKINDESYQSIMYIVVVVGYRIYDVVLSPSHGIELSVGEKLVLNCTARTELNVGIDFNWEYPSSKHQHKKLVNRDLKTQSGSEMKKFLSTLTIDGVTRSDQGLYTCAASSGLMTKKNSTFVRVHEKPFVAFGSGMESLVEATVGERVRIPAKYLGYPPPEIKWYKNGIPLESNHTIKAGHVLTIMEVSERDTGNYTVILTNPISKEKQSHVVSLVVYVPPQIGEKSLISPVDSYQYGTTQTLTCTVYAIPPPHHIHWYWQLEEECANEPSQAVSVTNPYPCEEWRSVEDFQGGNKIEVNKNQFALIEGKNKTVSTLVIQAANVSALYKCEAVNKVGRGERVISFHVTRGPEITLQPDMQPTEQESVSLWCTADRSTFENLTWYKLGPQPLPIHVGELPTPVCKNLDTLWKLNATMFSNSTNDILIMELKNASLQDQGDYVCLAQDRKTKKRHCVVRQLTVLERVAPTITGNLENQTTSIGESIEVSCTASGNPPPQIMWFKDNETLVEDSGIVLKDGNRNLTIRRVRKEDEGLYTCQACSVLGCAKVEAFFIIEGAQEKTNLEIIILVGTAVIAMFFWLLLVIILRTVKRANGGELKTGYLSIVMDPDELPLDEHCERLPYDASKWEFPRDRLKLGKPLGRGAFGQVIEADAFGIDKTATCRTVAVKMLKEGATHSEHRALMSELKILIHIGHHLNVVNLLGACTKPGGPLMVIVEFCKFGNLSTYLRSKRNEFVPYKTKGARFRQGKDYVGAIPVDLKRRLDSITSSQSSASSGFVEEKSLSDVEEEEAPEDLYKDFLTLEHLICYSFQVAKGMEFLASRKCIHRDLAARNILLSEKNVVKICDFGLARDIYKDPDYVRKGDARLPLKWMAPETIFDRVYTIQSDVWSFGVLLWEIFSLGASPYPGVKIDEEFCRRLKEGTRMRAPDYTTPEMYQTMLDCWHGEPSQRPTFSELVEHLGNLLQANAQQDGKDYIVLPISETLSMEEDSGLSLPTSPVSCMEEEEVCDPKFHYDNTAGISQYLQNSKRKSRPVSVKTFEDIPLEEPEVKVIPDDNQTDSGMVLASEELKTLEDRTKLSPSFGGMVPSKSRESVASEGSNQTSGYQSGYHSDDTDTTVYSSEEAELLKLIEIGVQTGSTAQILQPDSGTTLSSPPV
Description: Inhibition of recombinant human N-terminal His6-tagged KDR (790 to end residues) expressed in baculovirus infected Sf21 insect cells after 60 mins by ELISA

[6] = target: T1, Aurora kinase A (Homo sapiens, UniProt O14965); assay: Inhibition of Aurora A (unknown origin) using STK S2 as substrate after 40 mins by HTRF assay
T1 sequence (O14965 whole entry): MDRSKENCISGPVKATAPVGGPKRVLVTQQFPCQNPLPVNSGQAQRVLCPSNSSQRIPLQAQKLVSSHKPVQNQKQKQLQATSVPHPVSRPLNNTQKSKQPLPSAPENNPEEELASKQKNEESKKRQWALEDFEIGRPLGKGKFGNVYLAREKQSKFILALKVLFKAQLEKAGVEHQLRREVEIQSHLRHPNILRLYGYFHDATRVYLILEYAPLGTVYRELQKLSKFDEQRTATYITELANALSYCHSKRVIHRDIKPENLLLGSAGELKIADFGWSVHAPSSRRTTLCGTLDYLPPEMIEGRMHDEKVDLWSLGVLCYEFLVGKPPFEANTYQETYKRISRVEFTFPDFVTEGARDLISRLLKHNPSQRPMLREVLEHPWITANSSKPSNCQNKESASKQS

[7] = test system: SNU-5; assay: Antiproliferative activity against human SNU5 cells after 72 hrs by CCK8 assay; assay type: functional, cell-based; settings: SNU-5, 72 h
[8] = target: Insulin-like growth factor 1 receptor (Homo sapiens) (UniProt P08069); assay: Inhibition of recombinant human IGF1R at 100 nM after 60 mins by ELISA relative to control
[9] = target: Platelet-derived growth factor receptor beta (Homo sapiens) (UniProt P09619); assay: Inhibition of recombinant human PDGFRbeta at 1000 nM after 60 mins by ELISA relative to control
Platelet-derived growth factor receptor beta (Homo sapiens), sequence (P09619 whole entry): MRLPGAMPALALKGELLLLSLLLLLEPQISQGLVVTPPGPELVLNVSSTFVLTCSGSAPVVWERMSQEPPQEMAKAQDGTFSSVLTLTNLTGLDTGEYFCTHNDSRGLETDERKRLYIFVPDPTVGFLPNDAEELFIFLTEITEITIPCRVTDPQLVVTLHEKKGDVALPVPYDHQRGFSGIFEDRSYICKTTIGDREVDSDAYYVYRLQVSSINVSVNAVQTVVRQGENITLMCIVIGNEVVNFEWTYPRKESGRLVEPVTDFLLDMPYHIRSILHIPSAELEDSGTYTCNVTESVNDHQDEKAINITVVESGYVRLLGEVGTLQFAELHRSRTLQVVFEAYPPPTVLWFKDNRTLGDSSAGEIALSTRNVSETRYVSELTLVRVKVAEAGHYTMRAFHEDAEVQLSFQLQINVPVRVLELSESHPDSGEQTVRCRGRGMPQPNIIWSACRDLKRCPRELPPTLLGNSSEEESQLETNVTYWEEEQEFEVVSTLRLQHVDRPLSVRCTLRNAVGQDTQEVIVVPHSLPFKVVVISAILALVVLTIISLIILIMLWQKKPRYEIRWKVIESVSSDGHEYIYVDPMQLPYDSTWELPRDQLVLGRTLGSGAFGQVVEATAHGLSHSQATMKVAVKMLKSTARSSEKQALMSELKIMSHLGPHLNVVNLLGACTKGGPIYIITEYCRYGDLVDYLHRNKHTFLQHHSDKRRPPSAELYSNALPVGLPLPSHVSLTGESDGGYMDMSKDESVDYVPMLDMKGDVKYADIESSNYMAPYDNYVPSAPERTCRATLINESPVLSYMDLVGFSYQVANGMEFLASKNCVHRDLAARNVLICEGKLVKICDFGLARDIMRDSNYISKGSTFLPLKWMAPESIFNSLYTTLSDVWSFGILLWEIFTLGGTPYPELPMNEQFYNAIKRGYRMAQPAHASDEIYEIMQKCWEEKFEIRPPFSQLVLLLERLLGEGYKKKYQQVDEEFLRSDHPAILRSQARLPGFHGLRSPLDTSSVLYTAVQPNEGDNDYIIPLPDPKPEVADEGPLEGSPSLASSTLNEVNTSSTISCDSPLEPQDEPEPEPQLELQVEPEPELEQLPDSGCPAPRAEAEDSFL

[10] = target: Proto-oncogene tyrosine-protein kinase receptor Ret (Homo sapiens) (UniProt P07949); assay: Inhibition of recombinant human RET at 100 nM after 60 mins by ELISA relative to control
[11] = target: Vascular endothelial growth factor receptor 1 (Homo sapiens) (UniProt P17948); assay: Inhibition of recombinant human VEGFR1 at 1000 nM after 60 mins by ELISA relative to control
[12] = target: Proto-oncogene tyrosine-protein kinase Src (Homo sapiens) (UniProt P12931); settings: at 1000 nM
Proto-oncogene tyrosine-protein kinase Src (Homo sapiens), sequence (P12931 2-536 limits assumed): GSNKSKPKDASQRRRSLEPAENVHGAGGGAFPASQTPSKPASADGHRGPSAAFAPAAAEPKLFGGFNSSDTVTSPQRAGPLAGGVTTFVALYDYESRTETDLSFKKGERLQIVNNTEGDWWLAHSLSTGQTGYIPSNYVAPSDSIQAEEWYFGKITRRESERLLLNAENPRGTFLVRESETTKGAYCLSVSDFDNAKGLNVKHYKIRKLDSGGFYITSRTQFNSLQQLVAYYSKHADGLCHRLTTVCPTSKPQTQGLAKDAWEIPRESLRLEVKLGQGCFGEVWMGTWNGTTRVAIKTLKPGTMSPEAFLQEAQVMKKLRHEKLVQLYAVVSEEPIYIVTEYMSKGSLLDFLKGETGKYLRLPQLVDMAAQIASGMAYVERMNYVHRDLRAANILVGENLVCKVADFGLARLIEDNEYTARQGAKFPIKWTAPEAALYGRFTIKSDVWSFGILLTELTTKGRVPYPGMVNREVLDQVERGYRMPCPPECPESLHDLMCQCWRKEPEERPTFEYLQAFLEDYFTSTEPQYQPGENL
Description: Inhibition of recombinant human c-SRC at 1000 nM after 60 mins by ELISA relative to control

[13] = target: Epidermal growth factor receptor (Homo sapiens) (UniProt P00533); settings: at 1000 nM
Description: Inhibition of recombinant human EGFR at 1000 nM after 60 mins by ELISA relative to control

[14] = test system: SGC-7901; assay: Cell cycle arrest in human SGC7901 cells assessed as accumulation at G2/M phase after 24 hrs by propidium iodide staining based flow cytometry; assay type: functional
[15] = test system: BGC-823; assay: Antiproliferative activity against human BGC823 cells after 72 hrs by sulforhodamine B assay; assay type: functional, cell-based; settings: BGC-823, 72 h
[16] = target: Ephrin type-A receptor 2 (Homo sapiens) (UniProt P29317); assay: Inhibition of recombinant human EPHA2 at 100 nM after 60 mins by ELISA relative to control
[17] = Terminal elimination half life in ICR mouse at 25 mg/kg, po administered as single dose by LC-MS analysis; assay type: ADME, organism-based; settings: in vivo, read-out: beta t1/2 (converted)
[18] = target: Receptor tyrosine-protein kinase erbB-2 (Homo sapiens) (UniProt P04626); assay: Inhibition of recombinant human Erbb2 at 1000 nM after 60 mins by ELISA relative to control
Receptor tyrosine-protein kinase erbB-2 (Homo sapiens), sequence (P04626 whole entry): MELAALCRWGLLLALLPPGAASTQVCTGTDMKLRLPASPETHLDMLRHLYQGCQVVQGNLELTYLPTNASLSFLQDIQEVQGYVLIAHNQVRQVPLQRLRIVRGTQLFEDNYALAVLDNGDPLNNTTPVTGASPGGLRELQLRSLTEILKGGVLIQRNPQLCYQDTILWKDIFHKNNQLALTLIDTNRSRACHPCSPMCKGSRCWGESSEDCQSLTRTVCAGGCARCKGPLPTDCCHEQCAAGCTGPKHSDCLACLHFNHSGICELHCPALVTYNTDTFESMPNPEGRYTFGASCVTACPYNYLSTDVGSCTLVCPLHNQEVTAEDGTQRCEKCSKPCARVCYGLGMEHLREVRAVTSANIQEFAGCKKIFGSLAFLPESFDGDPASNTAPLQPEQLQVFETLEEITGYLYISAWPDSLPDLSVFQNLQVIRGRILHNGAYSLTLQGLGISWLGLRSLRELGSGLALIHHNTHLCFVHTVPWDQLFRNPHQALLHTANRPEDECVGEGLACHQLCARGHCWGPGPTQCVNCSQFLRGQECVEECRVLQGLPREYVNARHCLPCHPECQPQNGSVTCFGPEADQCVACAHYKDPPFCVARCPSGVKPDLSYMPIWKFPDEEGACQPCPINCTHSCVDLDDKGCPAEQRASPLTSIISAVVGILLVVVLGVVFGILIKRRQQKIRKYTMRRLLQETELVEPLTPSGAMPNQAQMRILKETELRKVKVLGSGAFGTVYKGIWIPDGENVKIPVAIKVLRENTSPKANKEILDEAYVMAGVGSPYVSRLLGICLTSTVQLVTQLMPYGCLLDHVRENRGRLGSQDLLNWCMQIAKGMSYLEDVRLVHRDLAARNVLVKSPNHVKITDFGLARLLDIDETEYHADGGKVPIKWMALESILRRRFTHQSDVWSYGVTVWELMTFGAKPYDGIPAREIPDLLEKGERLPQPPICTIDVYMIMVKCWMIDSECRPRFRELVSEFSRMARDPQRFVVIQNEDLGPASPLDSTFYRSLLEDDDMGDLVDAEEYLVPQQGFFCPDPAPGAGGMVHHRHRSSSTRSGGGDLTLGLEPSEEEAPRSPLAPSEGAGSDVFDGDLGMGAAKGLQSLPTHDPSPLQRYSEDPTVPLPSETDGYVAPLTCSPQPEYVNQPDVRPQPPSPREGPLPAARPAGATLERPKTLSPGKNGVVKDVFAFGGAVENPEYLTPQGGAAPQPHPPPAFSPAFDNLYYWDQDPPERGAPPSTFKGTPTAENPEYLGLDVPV

[19] = Volume of distribution at steady state in ICR mouse at 5 mg/kg, iv administered as single dose by LC-MS analysis; assay type: ADME, organism-based; settings: in vivo, read-out: Vdss
[20] = test system: Mus musculus; assay: AUC (0 to t) in ICR mouse at 5 mg/kg, iv administered as single dose by LC-MS analysis; assay type: ADME, organism-based; settings: in vivo
[21] = target: Receptor tyrosine-protein kinase erbB-2 (Homo sapiens) (UniProt P04626); assay: Inhibition of recombinant human Erbb2 at 100 nM after 60 mins by ELISA relative to control
[22] = test system: SNU-5; assay: Antitumor activity against human SNU5 cells xenografted in nude mouse assessed as delay in tumor growth at 20 mg/kg, po qd for 21 days relative to control; assay type: functional
[23] = test system: MKN-45; assay: Antiproliferative activity against human MKN45 cells after 72 hrs by sulforhodamine B assay; assay type: functional, cell-based; settings: MKN-45, 72 h
[24] = test system: Mus musculus; assay: AUC (0 to t) in ICR mouse at 25 mg/kg, po administered as single dose by LC-MS analysis; assay type: ADME, organism-based; settings: in vivo
[25] = target: Receptor tyrosine-protein kinase erbB-4 (Homo sapiens) (UniProt Q15303); assay: Inhibition of recombinant human Erbb4 at 100 nM after 60 mins by ELISA relative to control
[26] = target: Epidermal growth factor receptor (Homo sapiens) (UniProt P00533); assay: Inhibition of recombinant human EGFR at 100 nM after 60 mins by ELISA relative to control
[27] = test system: SGC-7901; assay: Antiproliferative activity against human SGC7901 cells after 72 hrs by sulforhodamine B assay; assay type: functional, cell-based; settings: SGC-7901, 72 h
[28] = test system: MKN-74; assay: Cell cycle arrest in human MKN74 cells assessed as accumulation at G2/M phase after 24 hrs by propidium iodide staining based flow cytometry; assay type: functional
[29] = target: Insulin-like growth factor 1 receptor (Homo sapiens) (UniProt P08069); assay: Inhibition of recombinant human IGF1R at 1000 nM after 60 mins by ELISA relative to control
[30] = target: Tyrosine-protein kinase ABL1 (Homo sapiens) (UniProt P00519); assay: Inhibition of recombinant human ABL at 100 nM after 60 mins by ELISA relative to control
[31] = Oral bioavailability in ICR mouse at 25 mg/kg administered as single dose by LC-MS analysis; assay type: ADME, organism-based; settings: in vivo
[32] = test system: Mus musculus; assay: Toxicity in nude mouse xenografted with human SNU5 cells assessed as body weight at 20 mg/kg, po qd for 21 days (reference value: 19.6 g); assay type: organism-based; settings: in vivo, 504 h
[33] = target: Vascular endothelial growth factor receptor 1 (Homo sapiens) (UniProt P17948); assay: Inhibition of recombinant human VEGFR1 at 100 nM after 60 mins by ELISA relative to control
[34] = target: Proto-oncogene tyrosine-protein kinase Src (Homo sapiens) (UniProt P12931); assay: Inhibition of recombinant human c-SRC at 100 nM after 60 mins by ELISA relative to control
[35] = MRT in ICR mouse at 5 mg/kg, iv administered as single dose by LC-MS analysis; assay type: ADME, organism-based; settings: in vivo
[36] = test system: MKN-74; assay: Antiproliferative activity against human MKN74 cells after 72 hrs by sulforhodamine B assay; assay type: functional, cell-based; settings: MKN-74, 72 h
[37] = Cmax in ICR mouse at 25 mg/kg, po administered as single dose by LC-MS analysis; assay type: ADME, organism-based; design: dose 25 mg/kg, route oral; settings: in vivo
[38] = target: Tyrosine-protein kinase ABL1 (Homo sapiens) (UniProt P00519); settings: at 1000 nM
Description: Inhibition of recombinant human ABL at 1000 nM after 60 mins by ELISA relative to control

[39] = Terminal elimination half life in ICR mouse at 5 mg/kg, iv administered as single dose by LC-MS analysis; assay type: ADME, organism-based; settings: in vivo, read-out: beta t1/2 (converted)
[40] = target: Proto-oncogene tyrosine-protein kinase receptor Ret (Homo sapiens) (UniProt P07949); assay: Inhibition of recombinant human RET at 1000 nM after 60 mins by ELISA relative to control
[41] = test system: SNU-5; assay: Cell cycle arrest in human SNU5 cells assessed as accumulation at G2/M phase after 24 hrs by propidium iodide staining based flow cytometry; assay type: functional
[42] = test system: MKN-45; assay: Cell cycle arrest in human MKN45 cells assessed as accumulation at G2/M phase after 24 hrs by propidium iodide staining based flow cytometry; assay type: functional
[43] = test system: Mus musculus; assay: Toxicity in nude mouse xenografted with human SNU5 cells assessed as mortality at 20 mg/kg, po qd for 21 days; assay type: organism-based; settings: in vivo, 504 h
[44] = Clearance in ICR mouse at 5 mg/kg, iv administered as single dose by LC-MS analysis; assay type: ADME, organism-based; settings: in vivo
[45] = target: Platelet-derived growth factor receptor beta (Homo sapiens) (UniProt P09619); assay: Inhibition of recombinant human PDGFRbeta at 100 nM after 60 mins by ELISA relative to control
[46] = Tmax in ICR mouse at 25 mg/kg, po administered as single dose by LC-MS analysis; assay type: ADME, organism-based; settings: in vivo
[47] = target: Receptor tyrosine-protein kinase erbB-4 (Homo sapiens) (UniProt Q15303); assay: Inhibition of recombinant human Erbb4 at 1000 nM after 60 mins by ELISA relative to control

COc1cc2nccc(Oc3ccc(NC(=O)C4(C(=O)Nc5ccc(F)cc5)CC4)cc3)c2cc1OC [CABOZANTINIB]
Activity [1]: 19.9 g
T/C [2]: 8.41%
Activity [3]: Non-Toxic

COc1ccc(C2=Nc3c(n[nH]c3C)Nc3nc(SC)ncc32)cc1
IC50 [4]: 2680 nM
IC50 [5]: 430 nM
IC50 [6]: 93 nM

Cc1ccc(C2=Nc3c(n[nH]c3C)Nc3nc(N4CCOCC4)ncc32)cc1
IC50 [7]: 1270 nM
inhibition [8]: 1.4%
inhibition [9]: 41%
inhibition [10]: 28.7%
inhibition [11]: 28.1%
inhibition [12]: 32%
inhibition [13]: 37.4%
Activity [14]: Dose-dependent effect
IC50 [15]: > 10000 nM
inhibition [16]: 3.9%
half-life [17]: 3.27 h
inhibition [18]: 0%
Vd [19]: 2.01 L/kg
AUCt [20]: 4724 ng·mL·h
IC50 [4]: 37.6 nM
inhibition [21]: 3%
T/C [22]: 61.63%
IC50 [23]: 1260 nM
AUCt [24]: 15335 ng·mL·h
inhibition [25]: 12%
inhibition [26]: 24.5%
IC50 [27]: > 10000 nM
Activity [28]: Dose-dependent effect
inhibition [29]: 26.8%
inhibition [30]: 0%
bioavailability [31]: 63.8%
Activity [32]: 18.4 g
inhibition [33]: 0%
inhibition [34]: 0%
MRT [35]: 1.93 h
IC50 [36]: 3140 nM
Cmax [37]: 2780 ng/mL
inhibition [38]: 0%
half-life [39]: 1.53 h
inhibition [40]: 68.7%
Activity [41]: Dose-dependent effect
IC50 [5]: 21.6 nM
Activity [42]: Dose-dependent effect
Activity [43]: Non-Toxic
clearance [44]: 17.3 mL/min/kg
IC50 [6]: 46.2 nM
inhibition [45]: 13.2%
Tmax [46]: 0.5 h
inhibition [47]: 17.5%

COc1cccc2c1C(=O)c1c(O)c3c(c(O)c1C2=O)C[C@@](O)(C(=O)CO)C[C@@H]3O[C@H]1C[C@H](N)[C@H](O)[C@H](C)O1 [DOXORUBICIN]
IC50 [7]: 237 nM
IC50 [15]: 405 nM
IC50 [23]: 127 nM
IC50 [27]: 130 nM
IC50 [36]: 204 nM

CCN(CC)c1ncc2c(n1)Nc1n[nH]c(C)c1N=C2c1ccc(C)cc1
IC50 [4]: 322 nM
IC50 [5]: 8.3 nM
IC50 [6]: 268 nM

Cc1ccc(C2=Nc3c(n[nH]c3C)Nc3nc(N4CCN(C)CC4)ncc32)cc1
IC50 [4]: 86 nM
IC50 [5]: 24.7 nM
IC50 [6]: 108 nM

CSc1ncc2c(n1)Nc1n[nH]c(C)c1N=C2c1ccc(Cl)cc1
IC50 [4]: 1620 nM
IC50 [5]: 318 nM
IC50 [6]: 183 nM

CSc1ncc2c(n1)Nc1n[nH]c(C)c1N=C2c1ccc(C(F)(F)F)cc1
IC50 [4]: 854 nM
IC50 [5]: 209 nM
IC50 [6]: 423 nM

Cc1ccc(C2=Nc3c(n[nH]c3C)Nc3nc(NC(C)(C)C)ncc32)cc1
IC50 [4]: 1180 nM
IC50 [5]: 84.5 nM
IC50 [6]: 357 nM

CSc1ncc2c(n1)Nc1n[nH]c(C)c1N=C2c1ccccc1
IC50 [4]: 894 nM
IC50 [5]: 697 nM
IC50 [6]: 193 nM

CN(C)C/C=C/C(=O)Nc1cc2c(Nc3ccc(F)c(Cl)c3)ncnc2cc1O[C@H]1CCOC1
inhibition [18]: 97.6%
